Measurements from patent US20120277265A1, “NOVEL POLYQUINOLINE DERIVATIVES AND THE THERAPEUTIC USE THEREOF” (CENTRE NATIONAL DE LA RECHERCHE SCIENTIFIQUE (C.N.R.S.), priority 2005, published 2012).

Assays:
[1] = Determination of log D7.4 (1-octanol / Tris-HCl buffer); type: physicochemical; details: 1-octanol / 20 mM Tris-HCl buffer containing 150 mM NaCl (pH = 7.4) (1/1, v/v)
Procedure: The ligand (2.0 mg) is dissolved in 2 ml of 1-octanol then 2 ml of 20 mM Tris-HCl buffer, pH=7.4 containing 150 mM NaCl are added. After mixing in a vortex for 3 min at ambient temperature, followed by centrifugation for 5 min at 9,000 rpm, the concentration of the ligand in each phase is determined by UV-visible spectrophotometry. The 1-octanol fractions are thus redivided until reproducible values of coefficient of division of obtained. This coefficient is expressed as the decimal logarithm of [(the concentration of ligand contained in the 1-octanol phase)/(the concentration of ligand contained in the buffered aqueous phase)]=log D7.4. Measurements were taken three times.

Aβ1-42 = biological target: T1, Aβ1-42 (Homo sapiens, UniProt P05067); assay: Inhibition of the precipitation of Aβ1-42 by the addition of ligand (Micro BCA assay of soluble/aggregated peptide); type: biochemical; details: Aβ1-42 5 μM, pH 7.4; for CuCl2 % soluble Aβ: 20 μM CuCl2, 1 h 37° C. then 1 h with 200 μM ligand; for FeCl3 % soluble Aβ: 20 μM FeCl3, 1 h 37° C. then 1 h with 200 μM ligand; for ZnCl2 % soluble Aβ: 20 μM ZnCl2, 1 h 37° C. then 1 h with 200 μM ligand; for without metal % soluble Aβ: no metal salt, 1 h 37° C. then 1 h with 200 μM ligand
T1 construct: The β-amyloid peptide Aβ1-42 (Aβ1-42) was synthesised, purified (to a purity greater than 95%); made in house; host or cells: chemical peptide synthesis (no expression host)
Procedure: After a further hour of incubation, the reaction mixture is centrifuged.
Before use, the water [of Milli-Q Millipore quality] and all buffer solutions were treated on Chelex-100 resin (Biorad) (5 mg/ml) and filtered through 0.2 μm filters (Whatman) to remove potential traces of metal ions or particles.
Working solutions of the peptide were prepared by solubilising 1 mg of lyophilised peptide in 500 μl of water and 500 μl of an aqueous NaOH solution pH=12.0, while stirring in a Thermomixer Comfort (Eppendorf). The peptide preparations are subsequently centrifuged for 10 minutes at 9,000 rpm and the supernatant is used as an “Aβ stock” solution. The concentration of peptide in the “Aβ stock” is determined immediately by colorimetric assay using a Micro BCA Protein Assays kit (Pierce) from standard ranges produced using known amounts of bovine serum albumin (BSA) then the Aβ1-42 peptide solution is aliquoted and frozen rapidly in liquid nitrogen prior to being stored at −20° C. until being used.
Salts are generated by adding one hydrochloric acid equivalent per nitrogen group equivalent of the ligand dissolved in DMSO. After evaporation of the solvent, these salts are dissolved at the desired concentration with DMSO and kept at −20° C. until they are used.
The protocol was established from works by: C. S. Atwood et al., J. Neurochem. […] The final concentrations are given. 500 μl of Aβ1-42 (5 μM is set to aggregate in 20 mM Tris-HCl buffer containing 150 mM NaCl (pH=7.4) for 1 hour at 37° C. while stirring at 1,400 rpm in the absence or presence of metal ions: CuCl2, ZnCl2 or FeCl3 (20 μM). Then 50 pi of ligand to be tested (200 μM) dissolved in DMSO are added and the samples are incubated for 1 further hour at 37° C. while stirring at 1,400 rpm. The samples without ligand also receive 50 μl of DMSO. The samples (final volume=550 μ) are subsequently centrifuged for 20 min at 9,000 rpm, and 500 μl of supernatant are removed. The tube containing the precipitation pellet then receives 450 μl of assay buffer/DMSO mixture (91/9, v/v). […] Quantification is carried out on the basis of standard BSA ranges. The amounts of Aβ1-42 actually contained in the pellet and the supernatant are obtained after a correction due to the presence of a residual portion of supernatant in the pellet-containing fraction.
For the control experiments with derivatives comprising a single quinoline residue, […] of ligand were added because complexes of type L2Cu are conventionally used in these cases.

[2] = tested on: copper complexes of Aβ1-42 peptide; assay: Stability of H2O2 during the H2O2 production inhibition experiments (known amount of H2O2 added); type: biochemical; details: for H2O2 assayed: no Aβ1-42, Cu(II) 0.4 μM, ascorbate 10 μM, ligand 0.4 μM; for theoretical value of H2O2 if there is no degradation (in parentheses): ascorbate, ligand
Procedure: (§1) The final concentrations are given. The reactions were carried out in the dark in mM sodium phosphate buffer (pH=7.4). Aβ1-42 (0.2 μM) and CuCl2 (0.4 μM) were pre-incubated for 1 hour at 37° C. while stirring at 1,400 rpm in 375 μl of buffer. Then 2 μl of a solution of ligand to be investigated (0.2; 0.4 or 0.8 μM) in DMSO were added. After incubation for a further hour, 2 μl of an aqueous sodium ascorbate solution (10 μM) were added and incubation was continued for 5 min while stirring. The amount of H2O2 produced is then quantified using an Amplex Red H2O2/HRP Assay Kit (Molecular Probes) while adding a volume of assay reagent to the samples, then incubating them for 1 hour at 37° C. while stirring at 500 rpm. H2O2 is then detected by spectrophotometry at 563 nm. Quantification is carried out on the basis of standard curves obtained with known amounts of H2O2.
(§2) Experiments were also carried out in the presence of a known amount of H2O2, added just before or just after the addition of sodium ascorbate, in order to investigate the stability of H2O2 under the experimental conditions employed.

[3] = Hydrogen peroxide produced by Aβ1-42 in the presence of CuCl2, ascorbate, air and ligand (Amplex Red H2O2/HRP); type: biochemical; details: CuCl2 0.4 μM, ascorbate 10 μM, air
Procedure: (§3) FIG. 11: Variation in H2O2 production by copper complexes of Aβ1-42 peptide as a function of the Cu(II)/Aβ stoichiometry. Experiments are carried out for 5 minutes in a sodium phosphate buffer (pH=7.4) in the presence 0.4 μM CuCl2, 10 μM ascorbate and air with or without 0.4 μM of 3 or 7. The H2O2 released is quantified by means of an Amplex-Red H2O2/HRP Assay kit.
as §1, with “H2O2 is then detected by spectrophotometry at 563 nm.” left out
(§4) The figures in the tables correspond to the amount of H2O2 (expressed in nanomoles) added using an Amplex Red H2O2/HRP Assay kit.

[4] = biological target: T2, copper complexes of Aβ1-42 peptide (Homo sapiens, UniProt P05067); assay: as above; type: biochemical; details: CuCl2 0.4 μM, ascorbate 10 μM, air
T2 construct: The β-amyloid peptide Aβ1-42 (Aβ1-42) was synthesised, purified (to a purity greater than 95%); made in house; host or cells: chemical peptide synthesis (no expression host)
Procedure: as §3
as §1, with “H2O2 is then detected by spectrophotometry at 563 nm.” left out
as §4

[5] = biological target: T2, copper complexes of Aβ1-42 peptide; assay: Stability of H2O2 during the H2O2 production inhibition experiments (known amount of H2O2 added); type: biochemical; details: Aβ1-42 0.2 μM, Cu(II) 0.4 μM, ascorbate 10 μM, ligand 0.4 μM
Procedure: as §1, §2

[6] = 3.0 nanomoles H2O2 added just before the ascorbate

T2 sequence (P05067 672-713 limits assumed, one chain of several): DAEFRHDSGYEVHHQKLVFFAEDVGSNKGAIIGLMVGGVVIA
T1 sequence (P05067 672-713): as the sequence (P05067 672-713 limits assumed, one chain of several) above

Row | Structure (SMILES) | logD at 3 min [1] | CuCl2 % soluble Aβ (Aβ1-42) [%] | FeCl3 % soluble Aβ (Aβ1-42) [%] | ZnCl2 % soluble Aβ (Aβ1-42) [%] | without metal % soluble Aβ (Aβ1-42) [%] | H2O2 assayed [2, 6] | H2O2 assayed ([2]; no H2O2 added) [nmol] | theoretical value of H2O2 if there is no degradation (in parentheses) ([2]; no Aβ1-42, Cu(II), 3.0 nanomoles H2O2 added just before the ascorbate) | amount of H2O2, without Aβ1-42 ([3]; ligand 1 eq/Cu(II) (0.4 μM)) [nmol] | amount of H2O2, 0.2 μM Aβ1-42 Cu/Aβ = 2 ([4]; ligand 1 eq/Cu(II) (0.4 μM)) [nmol] | amount of H2O2, 0.5 μM Aβ1-42 Cu/Aβ = 0.75 ([4]; ligand 1 eq/Cu(II) (0.4 μM)) [nmol] | amount of H2O2, without Aβ1-42 ([3]; ligand 2 eq/Cu(II)) [nmol] | amount of H2O2, 0.2 μM Aβ1-42 Cu/Aβ = 2 ([4]; ligand 2 eq/Cu(II)) [nmol] | amount of H2O2, 0.5 μM Aβ1-42 Cu/Aβ = 0.75 ([4]; ligand 2 eq/Cu(II)) [nmol] | theoretical value of H2O2 if there is no degradation (in parentheses) ([2]; Aβ1-42 0.2 μM, Cu(II), 3.0 nanomoles H2O2 added just before the ascorbate) [nmol] | H2O2 assayed [5, 6] [nmol] | H2O2 assayed ([5]; no H2O2 added) [nmol]
1 | Oc1cccc2ccc(CC(Cc3ccc4cccc(O)c4n3)c3ccc4cccc(O)c4n3)nc12 [Compound 11, 2,2′,2″-(1,2,3-Propanetriyl)-tris(8-hydroxyquinoline)] | 3.7 ± 0.1 | 48 | 43 | 45 | 48 |  |  |  |  |  |  |  |  |  |  |  | 
2 | Cc1ccc2cccc(O)c2n1 [8-hydroxyquinaldine, reference compound] | 2.4 ± 0.1 | 52 | 51 | 62 | 69 |  |  |  |  |  |  |  |  |  |  |  | 
3 | O=C(Nc1ccc2cccc(O)c2n1)c1ccc2cccc(O)c2n1 [Compound 18, 8-hydroxy-N-(8-hydroxy-2-quinolinyl)-2-quinolinecarboxamide] | 3 ± 0.1 | 46 ± 3 | 49 | 62 ± 5 | 66 | 3.5 (3.5) nanomoles | 0.47 | 3.5 (3.5) nanomoles | 0.47 | 0.47 | 0.45 |  |  |  |  |  | 
4 | Oc1cccc2cccnc12 [8-hydroxyquinoline, reference compound] | 2.1 ± 0.1 | 70 ± 3 | 80 | 88 | 85 |  |  |  | 2.02 | 0.69 | 0.75 | 0.62 | 0.71 ± 0.05 | 0.62 |  |  | 
5 | Oc1ccc(Cl)c2ccc(Cc3ccc4c(Cl)ccc(O)c4n3)nc12 [Compound 2, 2,2′-methanediyl-bis(5-chloro-8-hydroxyquinoline)] | 3.5 ± 0.1 | 45 ± 5 | 58 | 57 | 66 |  |  |  | 0.56 | 0.80 ± 0.23 | 0.61 |  |  |  |  |  | 
6 | Oc1cccc2ccc(Cc3ccc4cccc(O)c4n3)nc12 [Compound 1, 2,2′-methanediyl-bis(8-hydroxyquinoline)] | 3.3 ± 0.1 | 60 ± 5 | 61 | 63 | 63 ± 4 |  |  |  | 0.54 | 0.75 ± 0.11 | 0.76 |  |  |  |  |  | 
7 | Cc1ccc2cccc(NCCNc3cccc4ccc(C)nc34)c2n1 [Compound 14, N,N′-bis(2-methyl-8-quinolinyl)-1,2-ethanediamine] | 1.8 ± 0.1 | 45 ± 3 | 51 | 57 | 79 ± 3 |  |  |  | 0.74 | 1.99 | 0.78 |  |  |  | 5.0 | 4.9 | 1.99 ± 0.11
8 | COc1ccc2ccc(Cc3ccc4ccc(OC)c(O)c4n3)nc2c1O.Cl.Cl [Compound 16, 2,2′-(methanediyl)-bis(7-methyloxy-8-hydroxy-2-quinolinium) dichloride] |  | 48 ± 3 | 44 ± 6 | 50 | 53 |  |  |  |  | 0.70 |  |  |  |  |  |  | 
9 | Nc1cccc2cccnc12 [8-aminoquinoline, reference compound] | 1.9 ± 0.1 | 40 | 58 | 67 | 66 ± 3 |  |  |  |  |  |  |  |  |  |  |  | 
10 | c1cnc2c(Oc3cccc4cccnc34)cccc2c1 [Compound 15, 8,8′-Oxydiquinoline] | 2 ± 0.1 | 35 | 42 | 23 | 72 |  |  |  |  | 1.02 |  |  |  |  |  |  | 
11 | O=C(Nc1cccc2cccnc12)c1cccc2cccnc12 [Compound 24, N-8-quinolinyl-8-quinoline carboxamide] | 2.6 ± 0.1 | 21 | 38 | 21 | 64 |  |  |  | 0.49 | 0.62 | 0.47 |  |  |  |  |  | 
